Laboratory results: ChEMBL document CHEMBL1157539, “Thousands of chemical starting points for antimalarial lead identification” (Nature, 2010)

Test system: Plasmodium falciparum
Experiment: GSK_TCMDC: Inhibition of Plasmodium falciparum 3D7 in whole erythrocytes, using parasite LDH activity as an index of growth.
Type: functional, organism-based
Conditions: Plasmodium falciparum, 3D7

Structure (SMILES) | XC50 [nM]
CC1CCN(C(=O)CSc2nc(-c3ccc(C(C)C)cc3)no2)CC1 | 1350
CNCCNCc1ccc(-c2ccc(-c3nc4cc(C(F)(F)F)ccc4[nH]3)s2)cc1 | 604
Cc1ccc2[nH]c(Nc3ccc(Nc4nc5cc(C)ccc5[nH]4)c(C)c3)nc2c1 | 769
CCNc1cc(C(=O)N[C@@H](Cc2ccccc2)[C@H](O)CNCc2cc(C#N)ccc2OC)cc(N2CCCC2=O)c1 | 1230
COc1cc2cc(Cc3cnc(N)nc3N)ccc2c(OC)c1OC | 239
Cc1nc(C)c(-c2ccc(S(=O)(=O)c3ccc(Cl)cc3)cc2)c(O)c1Br | 38
NC(=O)c1ccccc1Nc1nc(Nc2cccc(N3CCN(CCO)CC3)c2)ncc1Cl | 39.6
CC(C)c1ccc(N(CC(=O)N/N=C/c2ccc(C(F)(F)F)cc2)S(=O)(=O)c2ccc(C(F)(F)F)cc2)cc1 | 846
CCOc1ccc(N2C(N)=NC(N)=NC2(C)C)cc1 | 259
Cc1nc(-c2cccc(NCc3ccccc3)c2)[nH]c1C | 863
O=C(Cn1c(SCc2cccc(F)c2F)cc(=O)c2ccccc21)N(CCCn1ccnc1)Cc1ccc(-c2ccc(C(F)(F)F)cc2)cc1 | 1320
Cc1cccc2nc(-c3cccc(-c4ccc(NC(=O)COc5ccccc5C(N)=O)cc4)c3)[nH]c12 | 889
CCn1ccc2c(N3CCCC3=O)cc(C(=O)N[C@@H](Cc3ccccc3)[C@H](O)CNCc3cccc(OC)c3)cc21 | 588
CCNC1=NC2=C(CC(C(C)(C)C)CC2)C2(CCC(C(C)(C)C)CC2)S1 (stereo unspecified) | 834
Cc1ccccc1C1CCN(C2CCC(NC(=O)C3=Cc4cc(Cl)ccc4OC3)CC2)CC1 (stereo unspecified) | 889
Cc1cc(CNCCCCCCCNCc2ccc(-c3ccccc3)cc2)ccc1O | 493
Cn1nccc1C(=O)NCCNCc1cccc(-c2ccc(-c3nc4ccccc4[nH]3)cc2)c1 | 473
CN1CCC(c2nc(N)no2)C1 (stereo unspecified) | 975
O=C1Nc2cccc3c2C1(CCCCN1CCC(c2c(-c4ccc(F)cc4)[nH]c4ccccc24)CC1)CCC3 (stereo unspecified) | 1190
Cc1noc(NC(=O)c2sc3ccccc3c2O)c1C | 852
COc1ccc(CN(C)CCCOc2ccc(NC(=O)c3cccc4c(=O)c5cccc(F)c5[nH]c34)cc2)cc1OC | 637
CC(C)c1ccc(NC(=O)c2ccc(CN3CCCN(Cc4cccc(Cl)c4)CC3)cc2)cc1 | 1160
CC[C@H](C)CNC(=O)c1cncc(-c2ccc(CNC3CCCC3)cc2)c1 | 1120
CN(C)CCN1CCN(Cc2ccc(-c3cccc(-c4nc5ccccc5[nH]4)c3)cc2)CC1 | 199

Structure (SMILES) | XC50 [nM]
Cc1ccc(C(=O)Nc2cc(C(F)(F)F)cc(C(F)(F)F)c2)cc1[N+](=O)[O-] | 927
O=[N+]([O-])c1cccc(S(=O)(=O)N2CCN(CC(O)COc3ccc(-c4ccccc4)cc3)CC2)c1 (stereo unspecified) | 1360
Cc1ncc([N+](=O)[O-])n1CCOC(=O)NC(Nc1ccc(Br)cc1)C(Cl)(Cl)Cl (stereo unspecified) | 962
Cc1cc(N)c2cc(NC(=O)c3cc(C(F)(F)F)cc(C(F)(F)F)c3)ccc2n1 | 86.8
O=S(=O)(Nc1ccc(-c2ccc(CN3CCCC3)cc2)cc1)c1cccc2cccnc12 | 1020
CCCC(C)Nc1nc(C)cc(N[C@@H](CC(C)C)C(=O)NCCOc2ccccc2)n1 (stereo partly specified) | 1710
Nc1c2c(nc3ccc(C(=O)Nc4cc(I)c(O)c(I)c4)cc13)CCCC2 | 1010
O=S(=O)(NCCN1CCCC1)c1ccc(-c2cccc(CNC3Cc4ccccc4C3)c2)cc1F | 1020
CC(C)CC(C)NC(=O)C1Cc2c([nH]c3ccc(F)cc23)C2(CCN(Cc3ccccc3)CC2)N1 (stereo unspecified) | 970
Cc1ccc(-c2ccn(Cc3ccc(OCc4ccccc4)cc3)n2)cn1.Cc1ccc(-c2ccnn2Cc2ccc(OCc3ccccc3)cc2)cn1 | 674
NCCc1cccc(-c2cnc3[nH]cc(-c4ccc(C(=O)O)cc4)c3c2)c1 | 397
Cc1cc(N2CCC(C)CC2)nc2cc(O)ccc12 | 1180
CC(C)c1ccc(-c2noc(SCC(=O)N3CCCCC3C)n2)cc1 (stereo unspecified) | 1670
CCCc1ccc(S(=O)(=O)NC2CCN(C(=O)Nc3ccc(I)cc3)CC2)cc1 | 872
COc1ccc(NC(=O)CSc2nc(-c3ccccc3Cl)ns2)cc1 | 1040
NCc1cccc(-c2ccc3ccnc(N)c3c2)c1 | 168
CCCCCC(C)NC[C@@H](O)[C@H](Cc1ccccc1)NC(=O)c1cc(NCC)cc(N2CCCCS2(=O)=O)c1 (stereo partly specified) | 398
COc1ccc(S(=O)(=O)NCC2CCCN(CCCCCNC(=O)/C=C/c3ccc(Cl)c(Cl)c3)C2)cc1 (stereo unspecified) | 1060
O=C(c1ccc(Cl)cc1Cl)N1CCCC(C(F)(F)F)C1 (stereo unspecified) | 952
COc1cc(Cc2cnc(N)nc2N)c2ccsc2c1OC | 1070
COc1ccc(-c2cnc(N)c(-c3ccc(O)c(OC)c3)c2)cn1 | 875
CCCC(C)NC(=O)[C@H]1CNCCN1C(=O)CCCc1ccccc1 (stereo partly specified) | 186
O=C(N[C@@H](CC1CCCCC1)C(=O)NC1CCCCC1)c1ccc(O)c(-c2cccc(C(F)(F)F)c2)c1 | 747
CCCc1c(C(=O)NC2CCC(CN3CCC(c4c[nH]c5ccccc45)CC3)CC2)cnn1-c1c(Cl)cc(Cl)cc1Cl (stereo unspecified) | 820

Structure (SMILES) | XC50 [nM]
Cc1cc2ccc(-c3cccc(CN)c3)cc2nc1N | 758
Cc1cc(Cl)c(S(=O)(=O)N2CCc3ccccc32)cc1OCC(=O)NC1CCCCC1 | 302
CCOc1cc(C2C(C(=O)OC(C)C)=C(C)NC3=C2C(=O)CC(c2ccc(Cl)cc2)C3)ccc1OC(C)=O (stereo unspecified) | 932
O=C(C=Cc1ccc(F)cc1)N1CCN(S(=O)(=O)c2ccc(Cl)cc2)CC1 | 634
Cc1ccc(-c2nc3cc(C(=O)NC4CCN(Cc5ccccc5)CC4)ccc3[nH]2)cc1 | 744
COc1cc2nc(N3CCC(CNC(=O)/C=C/c4cccc(C)c4)CC3)nc(N)c2cc1OC | 684
O=C(/C=C/c1cc(F)cc(C(F)(F)F)c1)N1CCC(CN2CCC(c3c[nH]c4ccccc34)CC2)CC1 | 756
Nc1ncnc2c1ncn2C(CO)Cc1ccc(O)cc1 (stereo unspecified) | 1030
Cc1ccc(Cn2c(N3CCC(C(=O)NCc4ccccn4)CC3)nc3ccccc32)cc1 | 408
CCOc1cc(C(=O)NC2CCN(Cc3ccccc3)CC2)ccc1-c1nc2cc(Cl)ccc2[nH]1 | 430
CC1CCC(C[C@@H](C(=O)N[C@@H](CCC(=O)N2CCCCC2)C(=O)Nc2nccs2)[C@H](C(C)C)N(O)C=O)CC1 (stereo partly specified) | 615
Cn1cc(C2CCN(CCCCNC(=O)c3ccc(C(=O)Nc4ccc(C#N)cc4)cc3)CC2)c2ccccc21 | 724
COc1ccc(CN2CCCC(N3CC4(OC3=O)c3ccccc3-c3ccccc34)C2)c(O)c1 (stereo unspecified) | 873
CCOCCCNc1ncc(-c2ccsc2)c(-c2nc(C)cs2)n1 | 272
O=S(=O)(NCCN1CCCC1)c1ccc(-c2cccc(CNCc3ccc(F)cc3)c2)cc1 | 729
Cc1cc(NC(=O)NCCN2CCC(NS(=O)(=O)c3ccccc3Cl)C2)c2ccccc2n1 (stereo unspecified) | 815
COc1ccc(-c2nc(NC(=O)Cc3ccc(OC)c(OC)c3)sc2C)cc1 | 1160
CCC1(C)CC(CCNCc2ccccc2O)(c2ccccc2OC)CCO1 (stereo unspecified) | 721
O=C(Nc1ccc(N2CCCCC2)c(Cl)c1)c1ccc(Br)o1 | 549
Cc1cc2c(cc1C(F)(F)F)N(C(=O)Nc1cc(OCCN(C(C)C)C(C)C)cc(C(F)(F)F)c1)CC2 | 259
CCCNC(=O)c1cncc(-c2cccc(CNC3Cc4ccccc4C3)c2)c1 | 803
Cc1onc(-c2c(Cl)cccc2Cl)c1C(=O)NC1=NC(C)(C)ON1c1ccccc1 | 1070
CCc1c(C)nc(-n2nc(C)cc2NC(=O)C(CC)c2ccccc2)[nH]c1=O (stereo unspecified) | 714
